Structures are written as SMILES. Numbers after ± are expanded uncertainties.

For the series the following is noted: Crystal 2; DSC.

Turning to `COC(=O)[C@H](c1ccccc1Cl)N1CCc2sccc2C1.O=S(=O)(O)O` [(S)-(+)-Clopidogrel hydrogen sulfate], the Triple point temperature turned out to be 449.15 ± 1 K.
